# Experimental data: patent US20070264372A1, “Cosmetic or pharmaceutical product for external use based on papaya” (priority 2006, published 2007)
# System: skin of the volunteers (volar surface of the forearm)
# Assay: Keratolytic activity: desquamation index after occlusive Finn chamber application, Protocol c)
# Assay type: in vivo, human
# Procedure: Under Protocol c) a study was carried out aimed to evaluate the Keratolytic activity of a raw, fermented papaya material for cosmetic use. The study was carried out according to a double-blinded protocol with randomisation of the application sites. Under the test, irritating products were applied to the skin of the volunteers by means of an occlusive chamber (Finn chamber, Ø 7.0 mm) containing a disc of absorbing paper wetted with a known quantity (20 μl) of product. The exposure time to the irritating product (Salicylic acid at 1.5, 3.0 and 5.0% (w/v) concentration) was 3 and 6 hours. The application site of the irritating products selected for study purposes was the volar surface of the forearm. The products were applied on the skin of the volunteers for 3 and 6 hours. • b) desquamation index on the images acquired with Comeofix® tape and Visioscan® (Courage+Khazaka electronic GmbH). Desquamation index was calculated as: DI=[2A+(T1·(1−1)+T2·(2−1)+ . . . +Tn·(n−1)]/(n+1) • The variation was calculated as: [formula] I.D. [X]0: Basal desquamation index; I.D. [X]x: Desquamation index at the x concentration (1.5, 3.0 and 5.0%) of fermented papaya or salicylic acid.
smiles,measurement,setting,value
"O=C(O)c1ccccc1O [SALICYLIC ACID, Salicylic acid]",Variation of desquamation index,"1.5% solution, 3 h application",2.58 ± 0.24
same,Variation of desquamation index,"1.5% solution, 6 h application",2.71 ± 0.36
same,Variation of desquamation index,"3.0% solution, 3 h application",3.12 ± 0.24
same,Variation of desquamation index,"3.0% solution, 6 h application",3.24 ± 0.38
same,Variation of desquamation index,"5.0% solution, 3 h application",3.25 ± 0.26
same,Variation of desquamation index,"5.0% solution, 6 h application",3.59 ± 0.43
same,change of desquamation index,"both after 3.0 and 6.0 hours of application, result in words",increase
same,application time at which the maximum keratolytic action was reached,statistical analysis,3 h
same,concentration at which the maximum keratolytic action was reached,statistical analysis,3.0%
